Measurements as given in publication PMC6658998, “Pharmacological characterization of the seven human NOX isoforms and their inhibitors” (Redox Biology, 2019).

Experiments:
[1] = target: T1, human NOX1 (Homo sapiens, UniProt Q9Y5S8); assay: Amplex Red/HRP H2O2 detection in NOX1-expressing CHO cells; format: cell-based; conditions: PMA 0.1 μM, read-out: IC50 NOX1 (CHO) AR
T1 construct: expressed in transfected cells; host or cells: CHO
T1 sequence (Q9Y5S8 1-564): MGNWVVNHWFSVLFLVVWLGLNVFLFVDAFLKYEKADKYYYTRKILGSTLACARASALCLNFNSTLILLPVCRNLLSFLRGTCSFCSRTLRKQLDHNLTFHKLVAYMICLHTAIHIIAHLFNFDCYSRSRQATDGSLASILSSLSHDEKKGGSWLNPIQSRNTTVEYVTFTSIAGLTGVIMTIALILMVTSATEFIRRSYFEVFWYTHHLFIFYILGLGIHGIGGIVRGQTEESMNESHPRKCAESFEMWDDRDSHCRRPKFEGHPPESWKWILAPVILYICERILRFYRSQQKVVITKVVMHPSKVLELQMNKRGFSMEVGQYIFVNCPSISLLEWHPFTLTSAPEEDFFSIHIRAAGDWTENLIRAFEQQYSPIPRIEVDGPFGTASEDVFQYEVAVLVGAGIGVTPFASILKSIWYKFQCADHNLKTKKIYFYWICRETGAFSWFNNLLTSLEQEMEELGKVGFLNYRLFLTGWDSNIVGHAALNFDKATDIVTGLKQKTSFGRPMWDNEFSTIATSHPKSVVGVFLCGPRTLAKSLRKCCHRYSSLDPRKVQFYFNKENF
T1 sequence (P13498 1-195 partner): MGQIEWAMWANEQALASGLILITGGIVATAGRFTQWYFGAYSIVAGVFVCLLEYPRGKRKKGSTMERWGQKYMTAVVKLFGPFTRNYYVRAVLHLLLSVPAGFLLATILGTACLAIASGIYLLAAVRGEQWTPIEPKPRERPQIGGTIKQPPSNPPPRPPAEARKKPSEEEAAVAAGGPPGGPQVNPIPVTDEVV

[2] = target: T1, human NOX1; assay: WST-1 O2•- detection in NOX1-expressing CHO cells; format: cell-based; conditions: WST-1, PMA 0.1 μM
[3] = target: T2, NOX5 (Homo sapiens, UniProt Q96PH1); assay: Amplex Red/HRP H2O2 detection in NOX5-expressing HEK293 cells; format: cell-based; conditions: PMA 0.1 μM and ionomycin 1 μM, read-out: IC50 NOX5 (HEK) AR
T2 construct: expressed in transfected cells
T2 sequence (Q96PH1 19-737 isoform Q96PH1-3 limits assumed): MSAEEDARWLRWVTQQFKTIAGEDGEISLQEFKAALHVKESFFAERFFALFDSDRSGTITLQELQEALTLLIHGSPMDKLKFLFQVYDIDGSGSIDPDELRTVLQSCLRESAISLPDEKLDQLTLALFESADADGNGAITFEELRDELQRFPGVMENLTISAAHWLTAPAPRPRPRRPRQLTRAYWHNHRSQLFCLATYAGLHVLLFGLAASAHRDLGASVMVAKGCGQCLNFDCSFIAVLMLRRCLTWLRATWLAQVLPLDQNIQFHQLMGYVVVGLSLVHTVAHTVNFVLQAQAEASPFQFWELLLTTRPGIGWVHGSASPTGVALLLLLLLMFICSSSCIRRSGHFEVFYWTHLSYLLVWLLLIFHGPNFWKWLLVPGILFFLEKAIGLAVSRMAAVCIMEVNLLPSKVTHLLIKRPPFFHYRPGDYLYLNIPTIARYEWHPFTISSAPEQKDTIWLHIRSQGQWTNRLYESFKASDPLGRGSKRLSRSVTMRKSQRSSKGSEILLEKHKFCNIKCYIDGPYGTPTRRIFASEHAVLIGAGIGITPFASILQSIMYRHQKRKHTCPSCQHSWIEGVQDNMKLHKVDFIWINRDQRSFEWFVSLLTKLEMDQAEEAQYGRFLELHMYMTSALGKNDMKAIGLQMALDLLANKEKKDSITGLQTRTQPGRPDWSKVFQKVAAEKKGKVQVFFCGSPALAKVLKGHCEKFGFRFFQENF

[4] = Cell-free Amplex Red/HRP assay with 10 μM H2O2 (H2O2 scavenging / HRP inhibition); conditions: 10 μM H2O2, Amplex Red/HRP, read-out: Scavenging effect IC50 AR H2O2
Protocol: This assay allows to detect H2O2 scavengers as well as HRP inhibitors. (iii) Another assay for determining antioxidant activity analyzes serial dilutions of compounds in the presence of free radical DPPH in methanol in transparent 96-well plates (200 μl/well). Absorbance was measured at 540 nm after 15 min incubation in the dark. All scavenging assays were performed with FlexStation 3 Multi-Mode Microplate Reader (Molecular Devices).

[5] = in vitro; conditions: human
Protocol: The effect of the compounds on cell viability was obtained using the Calcein-AM assay. […] Cells suspensions were prepared in HBSS. Cells were preincubated at 50,000 cells/well with compounds for 10 min at room temperature before addition of 4 μM Calcein-AM. Then the plate was incubated at 37 °C for 1 h in the dark. Intracellular Calcein fluorescence was measured using Spectramax Paradigm (Molecular Devices) at 485 nm excitation and 520 nm emission.

[6] = target: T3, human NOX4 (Homo sapiens, UniProt Q9NPH5); assay: WST-1 O2•- detection in tetracycline-induced NOX4 HEK293 T-REx cells; format: cell-based; conditions: WST-1, tetracycline 1 μg/mL 24 h
T3 sequence (Q9NPH5 1-578): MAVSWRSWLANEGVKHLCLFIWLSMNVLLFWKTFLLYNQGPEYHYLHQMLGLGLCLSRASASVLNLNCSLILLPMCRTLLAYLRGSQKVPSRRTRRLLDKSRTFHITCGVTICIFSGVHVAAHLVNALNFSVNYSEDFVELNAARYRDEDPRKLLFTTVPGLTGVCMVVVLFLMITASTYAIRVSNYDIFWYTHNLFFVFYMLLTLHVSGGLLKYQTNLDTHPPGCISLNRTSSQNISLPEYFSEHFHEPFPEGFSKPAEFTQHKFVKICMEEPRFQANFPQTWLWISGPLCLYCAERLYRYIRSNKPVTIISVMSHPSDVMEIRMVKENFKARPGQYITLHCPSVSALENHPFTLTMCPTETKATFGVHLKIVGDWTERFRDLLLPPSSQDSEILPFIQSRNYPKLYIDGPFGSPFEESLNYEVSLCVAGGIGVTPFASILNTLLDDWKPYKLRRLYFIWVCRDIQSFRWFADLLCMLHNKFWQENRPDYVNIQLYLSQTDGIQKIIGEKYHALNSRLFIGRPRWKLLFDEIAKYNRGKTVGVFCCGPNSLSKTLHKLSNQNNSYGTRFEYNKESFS
T3 sequence (P13498 1-195 partner): T1 sequence (P13498 1-195 partner)

Row | Structure (SMILES) | IC50 [1] [µM] | IC50 [2] [µM] | IC50 [3] [µM] | IC50 [4] [µM] | CC50 at 1 h ([5]; PLB-985 cells) [µM] | IC50 [6] [µM] | CC50 at 1 h [5] [µM]
1 | O=c1c2ccccc2[se]n1-c1ccccc1 [Ebselen, ebselen] | 2.9 | 31.6 | 2.1 | 3.3 | 3.1 |  | 
2 | Cc1c2c(=O)n(-c3ccccc3Cl)[nH]c2cc(=O)n1Cc1ccccn1 [GKT136901] | 9.2 | > 50 | 8 | 1.9 | > 50 | > 50 | 
3 | COc1cc(C(C)=O)ccc1O [Apocynin, apocynin] | > 50 | > 50 | > 50 | > 50 |  | > 50 | > 50
4 | COc1cc(C(C)=O)cc(-c2cc(C(C)=O)cc(OC)c2O)c1O [Diapocynin, diapocynin] | 32.7 | > 50 | 16.6 | 11.5 | > 50 | > 50 | 
5 | c1ccc2c(c1)[I+]c1ccccc1-2 [DPI, diphenylene iodonium chloride] |  |  |  | > 50 |  |  | > 50
